How the values were obtained:
Experiment in all cases: KiNativ chemical proteomics profiling in HeLa and PC3 cell lysates
[1] = tested on: selected panels of kinases in HeLa and PC3 cell lysates; format: binding, human; settings: 10 uM; for % Inhibition PI4KA,PI4KAP2: peptide SGTPMQSAAkAPYLAK, labeling site ATP; for % Inhibiton, MAP3K2,MAP3K3: peptide DIkGANILR; for % Inhibiton, IKKe,TBK1: peptide DIkPGNIMR; for % Inhibiton, JNK1,JNK2,JNK3: peptide DLkPSNIVVK; for % Inhibiton, MAP2K1,MAP2K2: peptide DVkPSNILVNSR
[2] = biological target: T1, selected panels of kinases in HeLa and PC3 cell lysates (Homo sapiens, UniProt O94804); format: binding; settings: 10 uM
T1 construct: endogenous in cells; host or cells: HeLa and PC3 cell lysates
T1 sequence (O94804 whole entry): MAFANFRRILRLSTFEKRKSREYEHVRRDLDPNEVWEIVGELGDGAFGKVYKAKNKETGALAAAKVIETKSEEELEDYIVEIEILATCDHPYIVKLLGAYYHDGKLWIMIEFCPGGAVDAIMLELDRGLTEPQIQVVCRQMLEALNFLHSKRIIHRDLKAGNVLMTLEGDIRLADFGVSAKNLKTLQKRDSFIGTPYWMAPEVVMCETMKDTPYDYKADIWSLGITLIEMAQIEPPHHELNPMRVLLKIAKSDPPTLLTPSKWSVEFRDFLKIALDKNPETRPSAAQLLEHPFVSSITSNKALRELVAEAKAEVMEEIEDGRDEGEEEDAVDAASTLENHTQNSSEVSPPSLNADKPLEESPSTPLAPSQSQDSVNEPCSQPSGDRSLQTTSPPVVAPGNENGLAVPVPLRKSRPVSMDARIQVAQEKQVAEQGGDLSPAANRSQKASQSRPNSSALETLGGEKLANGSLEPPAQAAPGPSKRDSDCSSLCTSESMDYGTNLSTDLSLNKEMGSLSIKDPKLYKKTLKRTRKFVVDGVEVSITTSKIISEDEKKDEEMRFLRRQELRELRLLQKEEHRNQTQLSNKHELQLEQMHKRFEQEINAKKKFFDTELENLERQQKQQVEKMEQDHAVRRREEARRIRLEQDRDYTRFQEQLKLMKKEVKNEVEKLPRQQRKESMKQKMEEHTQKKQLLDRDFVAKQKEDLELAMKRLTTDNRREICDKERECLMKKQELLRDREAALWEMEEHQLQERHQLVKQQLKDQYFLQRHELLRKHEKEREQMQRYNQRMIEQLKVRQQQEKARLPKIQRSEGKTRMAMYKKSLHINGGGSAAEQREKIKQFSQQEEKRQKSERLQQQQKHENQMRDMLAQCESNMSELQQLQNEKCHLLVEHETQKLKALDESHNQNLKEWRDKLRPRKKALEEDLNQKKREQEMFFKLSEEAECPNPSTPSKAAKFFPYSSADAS

[3] = biological target: T2, selected panels of kinases in HeLa and PC3 cell lysates (Homo sapiens, UniProt Q13233); format: binding; settings: 10 uM; proteome HEL; peptide DVk[…]; labeling site Lys2
T2 construct: endogenous in cells; host or cells: HeLa and PC3 cell lysates

[4] = biological target: T3, selected panels of kinases in HeLa and PC3 cell lysates (Homo sapiens, UniProt P50750); format: binding; settings: 10 uM; proteome PC3; peptide DMkAANVLITR; labeling site Lys2
T3 construct: endogenous in cells; host or cells: HeLa and PC3 cell lysates
T3 sequence (P50750 whole entry): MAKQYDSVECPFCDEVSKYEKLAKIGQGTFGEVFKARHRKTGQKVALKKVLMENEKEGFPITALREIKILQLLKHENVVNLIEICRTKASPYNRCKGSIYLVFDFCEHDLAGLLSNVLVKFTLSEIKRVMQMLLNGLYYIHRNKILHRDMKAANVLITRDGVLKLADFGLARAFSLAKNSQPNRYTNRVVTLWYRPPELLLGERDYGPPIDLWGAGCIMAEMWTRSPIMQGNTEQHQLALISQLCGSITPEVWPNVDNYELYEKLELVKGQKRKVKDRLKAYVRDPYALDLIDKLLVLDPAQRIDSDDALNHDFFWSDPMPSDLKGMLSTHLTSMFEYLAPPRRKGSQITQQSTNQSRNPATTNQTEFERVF

[5] = biological target: T4, selected panels of kinases in HeLa and PC3 cell lysates (Homo sapiens, UniProt Q16539); format: binding; settings: 10 uM
T4 construct: endogenous in cells; host or cells: HeLa and PC3 cell lysates
T4 sequence (Q16539 whole entry): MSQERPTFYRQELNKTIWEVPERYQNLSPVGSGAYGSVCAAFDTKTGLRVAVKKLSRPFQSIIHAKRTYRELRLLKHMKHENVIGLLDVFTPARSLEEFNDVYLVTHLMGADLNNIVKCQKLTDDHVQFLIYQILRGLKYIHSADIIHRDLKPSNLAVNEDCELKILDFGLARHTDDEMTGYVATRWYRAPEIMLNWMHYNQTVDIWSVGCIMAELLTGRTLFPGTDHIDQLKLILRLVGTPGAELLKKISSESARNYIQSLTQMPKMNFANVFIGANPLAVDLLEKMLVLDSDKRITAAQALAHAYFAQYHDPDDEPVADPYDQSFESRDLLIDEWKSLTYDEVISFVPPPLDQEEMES

[6] = biological target: T5, selected panels of kinases in HeLa and PC3 cell lysates (Homo sapiens, UniProt Q13188); format: binding; settings: 10 uM, peptide […]k[…], labeling site Lys1
T5 construct: endogenous in cells; host or cells: HeLa and PC3 cell lysates
T5 sequence (Q13188 1-491): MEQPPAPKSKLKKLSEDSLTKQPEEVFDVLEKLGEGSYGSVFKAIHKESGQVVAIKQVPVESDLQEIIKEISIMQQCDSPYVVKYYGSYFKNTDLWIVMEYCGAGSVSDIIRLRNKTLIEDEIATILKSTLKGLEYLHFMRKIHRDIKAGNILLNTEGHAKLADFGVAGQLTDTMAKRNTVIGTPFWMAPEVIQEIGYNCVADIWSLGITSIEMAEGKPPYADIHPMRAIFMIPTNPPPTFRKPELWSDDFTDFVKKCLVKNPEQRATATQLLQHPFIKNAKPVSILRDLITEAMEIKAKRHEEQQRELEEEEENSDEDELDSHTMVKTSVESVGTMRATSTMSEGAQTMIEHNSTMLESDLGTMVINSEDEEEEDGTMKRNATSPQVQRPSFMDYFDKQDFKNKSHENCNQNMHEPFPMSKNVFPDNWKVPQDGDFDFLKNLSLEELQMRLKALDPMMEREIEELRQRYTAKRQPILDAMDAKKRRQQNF

[7] = biological target: T6, selected panels of kinases in HeLa and PC3 cell lysates (Homo sapiens, UniProt P19525); format: binding; settings: 10 uM, PKR, peptide DLk[…], labeling site Lys2
T6 construct: endogenous in cells; host or cells: HeLa and PC3 cell lysates
T6 sequence (P19525 whole entry): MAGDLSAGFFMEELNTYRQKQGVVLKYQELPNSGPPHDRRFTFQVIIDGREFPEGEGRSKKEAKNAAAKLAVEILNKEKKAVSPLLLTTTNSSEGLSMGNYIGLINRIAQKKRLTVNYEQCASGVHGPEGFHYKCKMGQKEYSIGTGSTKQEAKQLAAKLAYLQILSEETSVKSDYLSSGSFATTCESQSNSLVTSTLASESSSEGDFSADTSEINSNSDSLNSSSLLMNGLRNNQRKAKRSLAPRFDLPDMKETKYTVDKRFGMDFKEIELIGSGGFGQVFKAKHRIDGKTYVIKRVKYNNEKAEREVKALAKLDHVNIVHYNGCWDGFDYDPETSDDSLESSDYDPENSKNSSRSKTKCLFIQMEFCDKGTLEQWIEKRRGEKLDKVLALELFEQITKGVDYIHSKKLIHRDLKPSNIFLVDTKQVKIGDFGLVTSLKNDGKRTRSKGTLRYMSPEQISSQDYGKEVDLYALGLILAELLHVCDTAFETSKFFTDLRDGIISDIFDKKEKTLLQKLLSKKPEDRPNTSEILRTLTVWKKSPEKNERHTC

[8] = biological target: T7, selected panels of kinases in HeLa and PC3 cell lysates (Homo sapiens, UniProt O14936); format: binding; settings: 10 uM; proteome PC3; peptide ETGQQFAVkIVDVAK; labeling site Lys1
T7 construct: endogenous in cells; host or cells: HeLa and PC3 cell lysates
T7 sequence (O14936 whole entry): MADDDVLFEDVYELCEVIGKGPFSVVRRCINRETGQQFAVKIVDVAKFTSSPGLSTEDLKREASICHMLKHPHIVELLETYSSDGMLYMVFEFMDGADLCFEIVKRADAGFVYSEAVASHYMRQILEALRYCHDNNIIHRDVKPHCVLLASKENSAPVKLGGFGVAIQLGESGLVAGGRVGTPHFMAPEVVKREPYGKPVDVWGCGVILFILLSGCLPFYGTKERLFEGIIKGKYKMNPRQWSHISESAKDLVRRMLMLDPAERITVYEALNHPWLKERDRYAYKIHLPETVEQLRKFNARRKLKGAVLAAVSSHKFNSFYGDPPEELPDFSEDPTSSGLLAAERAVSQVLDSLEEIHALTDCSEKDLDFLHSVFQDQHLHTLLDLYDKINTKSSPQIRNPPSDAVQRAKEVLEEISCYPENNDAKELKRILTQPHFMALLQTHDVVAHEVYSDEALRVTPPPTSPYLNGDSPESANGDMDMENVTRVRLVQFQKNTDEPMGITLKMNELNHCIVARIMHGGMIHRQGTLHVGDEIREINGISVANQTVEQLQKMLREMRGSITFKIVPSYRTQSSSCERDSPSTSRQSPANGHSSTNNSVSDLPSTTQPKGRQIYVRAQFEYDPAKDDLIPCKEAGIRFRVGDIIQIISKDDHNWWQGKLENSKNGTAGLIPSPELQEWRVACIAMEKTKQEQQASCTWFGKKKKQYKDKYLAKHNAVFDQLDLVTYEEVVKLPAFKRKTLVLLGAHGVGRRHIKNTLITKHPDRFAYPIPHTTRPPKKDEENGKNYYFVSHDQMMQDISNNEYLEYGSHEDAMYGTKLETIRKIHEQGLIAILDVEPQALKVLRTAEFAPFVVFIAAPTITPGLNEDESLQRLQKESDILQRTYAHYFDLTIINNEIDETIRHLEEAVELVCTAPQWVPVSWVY

[9] = biological target: T8, selected panels of kinases in HeLa and PC3 cell lysates (Homo sapiens, UniProt Q7RTN6); format: binding; settings: 10 uM; STLK5; peptide YSVk[…]; proteome HEL; labeling site Activation Loop
T8 construct: endogenous in cells; host or cells: HeLa and PC3 cell lysates
T8 sequence (Q7RTN6 whole entry): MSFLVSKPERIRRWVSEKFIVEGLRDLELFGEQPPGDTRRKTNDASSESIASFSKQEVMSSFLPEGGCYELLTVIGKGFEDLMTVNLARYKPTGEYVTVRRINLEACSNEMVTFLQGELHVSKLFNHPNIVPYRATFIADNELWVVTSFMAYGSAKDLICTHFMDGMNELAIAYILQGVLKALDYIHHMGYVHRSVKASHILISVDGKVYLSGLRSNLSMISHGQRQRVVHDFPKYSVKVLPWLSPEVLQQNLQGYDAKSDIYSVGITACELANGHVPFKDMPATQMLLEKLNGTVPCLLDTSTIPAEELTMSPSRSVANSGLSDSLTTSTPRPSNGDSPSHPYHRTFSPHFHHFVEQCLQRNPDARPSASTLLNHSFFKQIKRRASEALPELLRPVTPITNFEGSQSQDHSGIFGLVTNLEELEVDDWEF

[10] = biological target: T9, selected panels of kinases in HeLa and PC3 cell lysates (Homo sapiens, UniProt Q05397); format: binding; settings: 10 uM; proteome PC3; peptide […]kTCK; labeling site Lys1
T9 construct: endogenous in cells; host or cells: HeLa and PC3 cell lysates

[11] = biological target: T10, selected panels of kinases in HeLa and PC3 cell lysates (Homo sapiens, UniProt P16591); format: binding; settings: 10 uM, peptide TSVAVk[…], labeling site Lys1
T10 construct: endogenous in cells; host or cells: HeLa and PC3 cell lysates
T10 sequence (P16591 whole entry): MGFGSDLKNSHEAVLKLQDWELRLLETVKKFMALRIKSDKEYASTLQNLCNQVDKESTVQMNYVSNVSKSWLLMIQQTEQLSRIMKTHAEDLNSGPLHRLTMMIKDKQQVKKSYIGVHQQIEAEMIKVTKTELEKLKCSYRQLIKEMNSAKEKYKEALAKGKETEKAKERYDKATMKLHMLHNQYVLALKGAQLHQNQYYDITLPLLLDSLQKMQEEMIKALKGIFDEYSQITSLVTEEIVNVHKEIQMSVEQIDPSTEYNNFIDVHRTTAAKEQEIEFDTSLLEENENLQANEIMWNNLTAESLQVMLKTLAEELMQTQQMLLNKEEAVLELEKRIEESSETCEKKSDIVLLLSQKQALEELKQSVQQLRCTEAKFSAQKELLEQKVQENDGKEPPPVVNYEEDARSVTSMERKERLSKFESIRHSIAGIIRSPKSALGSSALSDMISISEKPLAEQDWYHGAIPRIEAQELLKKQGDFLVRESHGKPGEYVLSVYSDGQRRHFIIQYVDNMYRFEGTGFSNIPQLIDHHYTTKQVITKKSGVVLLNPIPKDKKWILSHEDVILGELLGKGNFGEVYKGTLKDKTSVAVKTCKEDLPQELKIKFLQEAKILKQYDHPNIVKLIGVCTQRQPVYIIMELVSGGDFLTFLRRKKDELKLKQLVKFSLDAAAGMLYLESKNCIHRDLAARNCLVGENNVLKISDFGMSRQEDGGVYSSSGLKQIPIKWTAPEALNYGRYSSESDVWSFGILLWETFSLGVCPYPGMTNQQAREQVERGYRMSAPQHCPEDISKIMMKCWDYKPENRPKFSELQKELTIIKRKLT

[12] = biological target: T11, selected panels of kinases in HeLa and PC3 cell lysates (Homo sapiens, UniProt Q00537); format: binding; settings: 10 uM; PCTAIRE2; peptide DLkPQNLLINEK; proteome HEL; labeling site Lys2
T11 construct: endogenous in cells; host or cells: HeLa and PC3 cell lysates
T11 sequence (Q00537 whole entry): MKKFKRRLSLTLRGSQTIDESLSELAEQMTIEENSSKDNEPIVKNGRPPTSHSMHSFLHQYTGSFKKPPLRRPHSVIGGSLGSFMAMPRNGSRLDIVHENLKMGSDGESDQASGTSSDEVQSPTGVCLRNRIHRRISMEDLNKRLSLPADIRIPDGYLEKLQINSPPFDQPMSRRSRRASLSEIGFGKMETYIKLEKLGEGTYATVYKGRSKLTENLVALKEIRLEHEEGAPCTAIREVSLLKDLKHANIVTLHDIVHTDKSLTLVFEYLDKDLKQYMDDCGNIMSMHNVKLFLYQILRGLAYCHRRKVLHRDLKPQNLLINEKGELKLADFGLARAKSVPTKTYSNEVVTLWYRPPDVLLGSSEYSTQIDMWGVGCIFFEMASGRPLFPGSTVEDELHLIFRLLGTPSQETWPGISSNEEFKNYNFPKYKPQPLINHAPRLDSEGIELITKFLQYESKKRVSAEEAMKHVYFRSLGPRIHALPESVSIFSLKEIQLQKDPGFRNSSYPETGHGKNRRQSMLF

[13] = peptide DIk[…], proteome HEL, labeling site Lys2
[14] = peptide DIk[…], proteome PC3, labeling site Lys2
[15] = proteome HEL, labeling site Lys2
[16] = proteome HEL, peptide DLk[…], labeling site Lys2
[17] = proteome PC3, labeling site Lys2
[18] = proteome PC3, peptide DIk[…], labeling site Lys2
[19] = proteome PC3, peptide DLk[…], labeling site Lys2

In the case of COc1cc(C(=O)N2CCC(N3CCN(C)CC3)CC2)ccc1Nc1ncc2c(n1)N(C1CCCC1)c1ccccc1C(=O)N2C [Compound 25, 11-cyclopentyl-2-((2-methoxy-4-(4-(4-methylpiperazin-1-yl)piperidine-1-carbonyl)phenyl)amino)-5-methyl-5H-benzo[e]pyrimido[5,4-b][1,4]diazepin-6(11H)-one], the “% Inhibition PI4KA,PI4KAP2” value ([1]; proteome HEL) is reported as 23.7%, the “% Inhibition PI4KA,PI4KAP2” value ([1]; proteome PC3) is reported as -7.2% and the “% Inhibition PKCa,PKCb” value ([1]; PKCa,PKCb, peptide DLk[…], proteome PC3, labeling site Lys2) is reported as 16.4%. For the same molecule, the “% Inhibition PKD1,PKD2” value ([1]; PKD1,PKD2, peptide NIVHCDLk[…], proteome HEL, labeling site Lys2) was -30.1%, the “% Inhibition ROCK1,ROCK2” value ([1]; ROCK1,ROCK2, peptide DVkPDNMLLDK, proteome PC3, labeling site Lys2) was 5.7% and the “% Inhibition RSK1,RSK2 domain1” value ([1]; RSK1,RSK2 domain1, peptide DLk[…], proteome HEL, labeling site Lys2) was -6.2%. For the same molecule, the “% Inhibition RSK1,RSK4 domain1” value ([1]; RSK1,RSK4 domain1, peptide VLGQGSFGkVFLVR, proteome HEL, labeling site ATP Loop) was -4.9%, the “% Inhibition SRPK1,SRPK2” value ([1]; SRPK1,SRPK2, peptide FVAMkVVK, proteome PC3, labeling site Lys1) was -2.0% and the “% Inhibition TAO1,TAO3” value [1, 13] was 21.0%. The “% Inhibition TAO1,TAO3” value [1, 14] was -5.2%, the “% Inhibition Wnk1,Wnk2,Wnk3” value ([1]; Wnk1,Wnk2,Wnk3, peptide DLk[…], proteome HEL, labeling site Lys2) was 9.6% and the “% Inhibition Wnk1,Wnk2,Wnk4” value ([1]; Wnk1,Wnk2,Wnk4, peptide IGDLGLATLkR, proteome PC3, labeling site Activation Loop) was -9.4%. The “% Inhibition ZC1/HGK,ZC2/TNIK,ZC3/MINK” value [1, 13] was 10.0%, the “% Inhibition ZC1/HGK,ZC2/TNIK,ZC3/MINK” value [1, 14] was -6.5% and the “% Inhibition p70S6K,p70S6Kb” value ([1]; p70S6K,p70S6Kb, peptide GGYGkVFQVR, proteome PC3, labeling site ATP Loop) was -1.5%. For the same molecule, the “% Inhibiton, MAP3K2,MAP3K3” value [1, 15] was 14.4%, the “% Inhibiton, IKKe,TBK1” value [1, 15] was 18.2% and the “% Inhibiton, NEK6,NEK7” value ([1]; proteome HEL, peptide DIk[…], labeling site Lys2) was 6.9%. The “% Inhibiton, JNK1,JNK2,JNK3” value [1, 15] was 33.5%, the “% Inhibiton, AMPKa1,AMPKa2” value [1, 16] was 9.6% and the “% Inhibiton, MARK2,MARK3” value [1, 16] was 9.5%. For the same molecule, the “% Inhibiton, MAST2,MAST4” value [1, 16] was 28.2%, the “% Inhibiton, p38d,p38g” value [1, 16] was 12.3% and the “% Inhibiton, MAP2K1,MAP2K2” value [1, 15] was -0.9%. The “% Inhibiton, MYO3A,MYO3B” value ([1]; proteome HEL, peptide DVk[…], labeling site Lys2) was -3.3%, the “% Inhibiton, BMX,BTK” value ([1]; proteome HEL, peptide GQYDVAIkMIK, labeling site Lys1) was about 43.0% and the “% Inhibiton, MAP3K5,MAP3K6,MAP3K7” value ([1]; proteome HEL, peptide IAIkEIPERDSR, labeling site Lys1) was -4.3%. For the same molecule, the “% Inhibiton, KSR1,KSR2” value ([1]; proteome HEL, peptide SkNVFYDNGK, labeling site Protein Kinase Domain) was 6.2%, the “% Inhibiton, AMPKa1,AMPKa2” value ([1]; proteome HEL, peptide VAVkILNR, labeling site Lys1) was 10.9% and the “% Inhibiton, MSK1,MSK2 domain1” value ([1]; proteome HEL, peptide VLGTGAYGkVFLVR, labeling site ATP Loop) was -9.5%. For the same molecule, the “% Inhibiton, ABL,ARG” value ([1]; proteome HEL, peptide […]kFPIK, labeling site Activation Loop) was 17.5%, the “% Inhibiton, MAP3K2,MAP3K3” value [1, 17] was -0.6% and the “% Inhibiton, IKKe,TBK1” value [1, 17] was 11.0%. The “% Inhibiton, MST1,MST2” value [1, 18] was 8.8%, the “% Inhibiton, MST4,YSK1” value [1, 18] was 1.0% and the “% Inhibiton, NEK6,NEK7” value [1, 18] was -5.0%. The “% Inhibiton, CaMK2a,CaMK2b,CaMK2d,CaMK2g” value ([1]; proteome PC3, peptide DLkPENLLLASK, labeling site Lys2) was -1.1%, the “% Inhibiton, JNK1,JNK2,JNK3” value [1, 17] was 30.3% and the “% Inhibiton, AMPKa1,AMPKa2” value [1, 19] was 16.4%. The “% Inhibiton, CDK11,CDK8” value [1, 19] was 8.9%, the “% Inhibiton, MARK2,MARK3” value [1, 19] was 11.6% and the “% Inhibiton, p38d,p38g” value [1, 19] was -6.8%. The “% Inhibiton, MAP2K1,MAP2K2” value [1, 17] was -0.2%, the “% Inhibiton, CK1d,CK1e” value ([1]; proteome PC3, peptide DVk[…], labeling site Lys2) was -16.9% and the “% Inhibiton, MARK3,MARK4” value ([1]; proteome PC3, peptide EVAIkIIDK, labeling site Lys1) was -5.2%. For the same molecule, the “% Inhibiton, FYN,SRC,YES” value ([1]; proteome PC3, peptide QGAk[…], labeling site Activation Loop) was -32.2%, the “% Inhibiton, AMPKa1,AMPKa2” value ([1]; proteome PC3, peptide VAVkILNR, labeling site Lys1) was 14.9% and the “% Inhibiton, LOK” value [2, 16] was 3.2%. For the same molecule, the “% Inhibiton, LOK” value ([2]; proteome HEL, peptide […]kVIETK, labeling site Lys1) was 2.1%, the “% Inhibiton, LOK” value [2, 19] was 8.0% and the “% Inhibiton, LOK” value ([2]; proteome PC3, peptide […]kVIETK, labeling site Lys1) was 1.9%. The “% Inhibiton, MAP3K1” value [3] was 36.1%, the “% Inhibiton, CDK9” value [4] was 10.0% and the “% Inhibiton, p38a” value [5, 16] was 6.5%. The “% Inhibiton, p38a” value ([5]; proteome HEL, peptide QELNkTIWEVPER, labeling site Other) was 12.6%, the “% Inhibiton, p38a” value [5, 19] was 42.4% and the “% Inhibiton, p38a” value ([5]; proteome PC3, peptide QELNkTIWEVPER, labeling site Other) was -7.5%. The “% Inhibiton, MST2” value ([6]; proteome HEL) was -4.5%, the “% Inhibiton, MST2” value ([6]; proteome PC3) was -9.2% and the “% Inhibition PKR” value ([7]; proteome HEL) was 6.1%. For the same molecule, the “% Inhibition PKR” value ([7]; proteome PC3) was -3.4%, the “% Inhibiton, CASK” value [8] was -0.2% and the “% Inhibition STLK5” value [9] was -32.9%. The “% Inhibiton, FAK” value [10] was 79.4%, the “% Inhibiton, FER” value ([11]; proteome HEL) was 21.3% and the “% Inhibiton, FER” value ([11]; proteome PC3) was 28.9%. The “% Inhibition PCTAIRE2” value [12] was 4.8%.

From article PMC3914206
